Assays:
[1] = tested on: pooled normal human plasma; experiment: Prothrombin time (PT) assay in citrated human plasma; format: biochemical; conditions: control clotting time 13 seconds, mean of two independent determinations
Excerpt: (§1) FIG. 2 depicts the anticoagulant effect of (D)-camphorsulfonyl aspartyl sarcosine arginine aldehyde measured in citrated human plasma using the activated partial thromboplastin time (APTT) assay, closed circles (1), and prothrombin time (PT) assay, open triangles (D). The control clotting times (0 inhibitor) for the APTT and PT assays in human plasma were 29 seconds and 13 seconds, respectively. The concentration of (D)-camphorsulfonyl aspartyl sarcosine arginine aldehyde which caused a doubling of the control clotting times in the APTT and PT assays were 54 micromolar and 298 micromolar, respectively. The data is the mean of two independent determinations.
(§2) The ex vivo anticoagulant effect of a compound of the present invention, (D)-camphorsulfonyl aspartyl sarcosine arginine aldehyde (Example 56), was determined by measuring the prolongation of the activated partial thromboplastin time (APTT) and prothrombin time (PT) over a broad concentration range of the added inhibitor, using pooled normal human plasma.
(§3) Fresh frozen citrated pooled normal human plasma was obtained from George King Biomedical, Overland Park, Kansa. […]

[2] = tested on: pooled normal human plasma; experiment: Activated partial thromboplastin time (APTT) assay in citrated human plasma; format: biochemical
Excerpt: as §1, §2, §3

SMILES: CN(CC(=O)N[C@H](C=O)CCCN=C(N)N)C(=O)[C@H](CC(=O)O)NS(=O)(=O)C[C@]12CC[C@H](CC1=O)C2(C)C [(D)-camphorsulfonyl aspartyl sarcosine arginine aldehyde]
- concentration which caused a doubling of the control clotting time in the PT assay [1]: 298 µM
- concentration which caused a doubling of the control clotting time in the APTT assay ([2]; citrated human plasma, control clotting time 29 seconds, mean of two independent determinations): 54 µM
- prolongation of the APTT ([2]; human plasma, broad concentration range of added inhibitor (FIG. 2)): prolonged the APTT in a dose dependent manner

— patent US5696231A, “N-substituted glycine derivatives as enzyme inhibitors” (Corvas International, Inc., priority 1994, dated 1997)
